Structures are written as SMILES. Where a name gives a salt, the structure may show the parent alone.

In patent US9079866B2, “Flap modulators” (JANSSEN PHARMACEUTICA NV, priority 2013, dated 2015) one finds Ki and IC50 data, which are given here for 25 compounds.

Assay [1] addresses human FLAP (Homo sapiens (Human), UniProt P20292). Nature of the assay: FLAP binding assay (HTRF format). To be noted: wild type FLAP, HTRF format. The method, boiled down:
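Binding of compounds to FLAP read out as HTRF ratio. Values are the mean of two assay plates, each sample run in duplicate per plate.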
For orientation: In TR-FRET formats the signal depends on donor and acceptor labels being close together.

The subject of assay [2] is leukotriene pathway in human whole blood (LTB4 levels). In words: Human whole blood assay (A23187-stimulated LTB4). Type of assay: cell-based. To be noted: Homo sapiens, human whole blood diluted 1:1, A23187-stimulated; read-out: LTB4 IC50 1:1. The method in brief: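 Single-replicate data from at least one healthy donor: compound pre-incubated 15 min at 37° Celsius in 1:1 RPMI-diluted heparinised blood, followed by 30 min calcium ionophore A23187 (7 μg/mL) challenge at 37° Celsius. LTB4 in plasma quantified by kit; IC50 via 4-parameter equation.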

Chain of human FLAP (P20292 whole entry): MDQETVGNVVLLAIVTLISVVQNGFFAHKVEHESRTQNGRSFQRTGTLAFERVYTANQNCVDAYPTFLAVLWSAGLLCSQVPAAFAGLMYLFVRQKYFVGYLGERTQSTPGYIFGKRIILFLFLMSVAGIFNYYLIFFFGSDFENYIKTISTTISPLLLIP

One may read the Ki as a dissociation constant, usually derived from enzyme kinetics or from competition with a known ligand. A higher Ki goes with weaker binding. Usually IC50 stands for the point on the concentration scale where inhibition reaches its midpoint. As for `Nc1cnc(-c2ccc(-c3ccc(C(F)(F)F)cc3CNCCO)cc2F)cn1` [Example 607, 2-({[4′-(5-Aminopyrazin-2-yl)-3′-fluoro-4-(trifluoromethyl)biphenyl-2-yl]methyl}amino)ethanol], the Ki in assay [1] was found to be 138 nM. Moreover, in assay [2], the IC50 was found to be 152 nM.
Taken in the same sequence, the figures for `Cc1cc(C)nc(Oc2ccccc2-c2ccc(-c3cnc(N)cn3)c(F)c2)n1` [Example 608, 5-{2′-[(4,6-Dimethylpyrimidin-2-yl)oxy]-3-fluorobiphenyl-4-yl}pyrazin-2-amine] were 28.7 nM and 53.9 nM.
Regarding `Cc1cc(C)nc(Oc2ccccc2-c2ccc(-c3cnc(N)nc3)c(F)c2)n1` [Example 609, 5-{2′-[(4,6-Dimethylpyrimidin-2-yl)oxy]-3-fluorobiphenyl-4-yl}pyrimidin-2-amine], affinity in assay [1] was put at a Ki of 246 nM. In addition, in assay [2], the half-inhibitory concentration (IC50) was 768 nM.
Taken in the same sequence, the figures for `Nc1cnc(-c2ccc(-c3ccccc3Oc3ccnc(C(F)(F)F)c3)cc2F)cn1` [Example 610, 5-(3-Fluoro-2′-{[2-(trifluoromethyl)pyridin-4-yl]oxy}biphenyl-4-yl)pyrazin-2-amine] were 27.4 nM and 117 nM.
Taken in the same sequence, the figures for `Nc1ncc(-c2ccc(-c3ccccc3Oc3ccnc(C(F)(F)F)c3)cc2F)cn1` [Example 611, 5-(3-Fluoro-2′-{[2-(trifluoromethyl)pyridin-4-yl]oxy}biphenyl-4-yl)pyrimidin-2-amine] were 249 nM and 563 nM.
With `Nc1cnc(-c2ccc(-c3ccccc3Oc3nccc(C(F)(F)F)n3)cc2F)cn1` [Example 612, 5-(3-Fluoro-2′-{[4-(trifluoromethyl)pyrimidin-2-yl]oxy}biphenyl-4-yl)pyrazin-2-amine], in assay [1], the Ki came out at 14.6 nM. Besides, in assay [2], the IC50 worked out at 42 nM.
Compound `Nc1ncc(-c2ccc(-c3ccccc3Oc3nccc(C(F)(F)F)n3)cc2F)cn1` [Example 613, 5-(3-Fluoro-2′-{[4-(trifluoromethyl)pyrimidin-2-yl]oxy}biphenyl-4-yl)pyrimidin-2-amine] displayed a Ki in assay [1] of 215 nM. In addition, the IC50 in assay [2] worked out at 556 nM.
Compound `N#Cc1cccc(Oc2ccccc2-c2ccc(-c3cnc(N)nc3)c(F)c2)n1` [Example 618, 6-{[4′-(2-Aminopyrimidin-5-yl)-3′-fluorobiphenyl-2-yl]oxy}pyridine-2-carbonitrile] returned a Ki in assay [1] of 14.6 nM. For the same compound, the half-maximal inhibitory concentration (IC50) in assay [2] worked out at 211 nM.
`N#Cc1cccc(Oc2ccccc2-c2ccc(-c3cnc(N)cn3)c(F)c2)n1` [Example 619, 6-{[4′-(5-Aminopyrazin-2-yl)-3′-fluorobiphenyl-2-yl]oxy}pyridine-2-carbonitrile] showed a Ki in assay [1] of 3.4 nM. Further, in assay [2], the IC50 is 45.1 nM.
Turning to `Nc1ccc(Oc2ccccc2-c2ccc(-c3cnc(N)cn3)c(F)c2)nc1` [Example 620, 5-{2′-[(5-Aminopyridin-2-yl)oxy]-3-fluorobiphenyl-4-yl}pyrazin-2-amine], affinity in assay [1] was put at a Ki of 1.9 nM. For the same compound, in assay [2], the 50% inhibitory concentration (IC50) came to 13.2 nM.
For `Nc1ccc(Oc2ccccc2-c2ccc(-c3cnc(N)nc3)c(F)c2)nc1` [Example 621, 5-{2′-[(5-Aminopyridin-2-yl)oxy]-3-fluorobiphenyl-4-yl}pyrimidin-2-amine], in assay [1], affinity was put at a Ki of 5 nM. In addition, the IC50 in assay [2] was 101 nM.
For `Cc1nc(N)cc(Oc2ccccc2-c2ccc(-c3cnc(N)nc3)c(F)c2)n1` [Example 622, 5-{2′-[(6-Amino-2-methylpyrimidin-4-yl)oxy]-3-fluorobiphenyl-4-yl}pyrimidin-2-amine], in that order: 46.1 nM and 340 nM.
In assay [1], `Cc1nc(N)cc(Oc2ccccc2-c2ccc(-c3cnc(N)cn3)c(F)c2)n1` [Example 623, 6-{[4′-(5-Aminopyrazin-2-yl)-3′-fluorobiphenyl-2-yl]oxy}-2-methylpyrimidin-4-amine] yielded an inhibition constant (Ki) of 4.9 nM. Further, in assay [2], the IC50 was 93.5 nM.
For `Nc1cnc(-c2ccc(-c3ccccc3Oc3cccc(C(F)(F)F)n3)cc2F)cn1` [Example 625, 5-(3-Fluoro-2′-{[6-(trifluoromethyl)pyridin-2-yl]oxy}biphenyl-4-yl)pyrazin-2-amine], in that order: 7.8 nM and 173 nM.
In assay [1], `N#Cc1ccc(Oc2ccccc2-c2ccc(-c3cnc(N)cn3)c(F)c2)nc1` [Example 626, 6-{[4′-(5-Aminopyrazin-2-yl)-3′-fluorobiphenyl-2-yl]oxy}pyridine-3-carbonitrile] yielded an inhibition constant (Ki) of 6.2 nM. For the same compound, the 50% inhibitory concentration (IC50) in assay [2] came out at 45.3 nM.
For `N#Cc1ccc(Oc2ccccc2-c2ccc(-c3cnc(N)nc3)c(F)c2)nc1` [Example 627, 6-{[4′-(2-Aminopyrimidin-5-yl)-3′-fluorobiphenyl-2-yl]oxy}pyridine-3-carbonitrile], in that order: 43.7 nM and 366 nM.
For `Nc1cnc(-c2ccc(-c3ccccc3Oc3cc(C4CC4)ncn3)cc2F)cn1` [Example 636, 5-{2′-[(6-Cyclopropylpyrimidin-4-yl)oxy]-3-fluorobiphenyl-4-yl}pyrazin-2-amine], in that order: 4.6 nM and 107 nM.
In assay [1], `Nc1ncc(-c2ccc(-c3ccccc3Oc3cc(C4CC4)ncn3)cc2F)cn1` [Example 637, 5-{2′-[(6-Cyclopropylpyrimidin-4-yl)oxy]-3-fluorobiphenyl-4-yl}pyrimidin-2-amine] displayed a Ki of 18.8 nM. Besides, in assay [2], the concentration for half-maximal inhibition (IC50) worked out at 398 nM.
Regarding `Nc1cnc(-c2ccc(-c3ccccc3Oc3ccnc(N)c3)cc2F)cn1` [Example 638, 5-{2′-[(2-Aminopyridin-4-yl)oxy]-3-fluorobiphenyl-4-yl}pyrazin-2-amine], in assay [1], the affinity, expressed as Ki, was 1.4 nM. In addition, in assay [2], the half-maximal inhibitory concentration (IC50) was 14.8 nM.
As for `Nc1cc(Oc2ccccc2-c2ccc(-c3cnc(N)nc3)c(F)c2)ccn1` [Example 639, 5-{2′-[(2-Aminopyridin-4-yl)oxy]-3-fluorobiphenyl-4-yl}pyrimidin-2-amine], affinity in assay [1] was put at a Ki of 7.2 nM. Further, in assay [2], the concentration for half-maximal inhibition (IC50) worked out at 67 nM.
`N#CCOc1ccccc1-c1ccc(-c2cnc(N)cn2)c(F)c1` [Example 642, {[4′-(5-Aminopyrazin-2-yl)-3′-fluorobiphenyl-2-yl]oxy}acetonitrile] showed an inhibition constant (Ki) in assay [1] of 78.8 nM. For the same compound, in assay [2], the half-inhibitory concentration (IC50) turned out to be 981 nM.
`N#CCOc1ccccc1-c1ccc(-c2cnc(N)nc2)c(F)c1` [Example 643, {[4′-(2-Aminopyrimidin-5-yl)-3′-fluorobiphenyl-2-yl]oxy}acetonitrile]: the affinity in assay [1] corresponds to a Ki of 322 nM. Besides, the IC50 in assay [2] is 4290 nM.
`Nc1ncc(-c2ccc(-c3cccnc3O[C@H]3CC[C@H](N)CC3)cc2F)cn1` [Example 651, 5-(4-{2-[(trans-4-Aminocyclohexyl)oxy]pyridin-3-yl}-2-fluorophenyl)pyrimidin-2-amine] displayed a Ki in assay [1] of 306 nM. Besides, the concentration for half-maximal inhibition (IC50) in assay [2] stood at 1540 nM.
Taken in the same sequence, the figures for `Nc1cnc(-c2ccc(-c3cccnc3O[C@H]3CC[C@H](N)CC3)cc2F)cn1` [Example 652, 5-(4-{2-[(trans-4-Aminocyclohexyl)oxy]pyridin-3-yl}-2-fluorophenyl)pyrazin-2-amine formic acid salt] were 62.7 nM and 842 nM.
The compound `Nc1cnc(-c2ccc(-c3cccnc3OC3CCOCC3)cc2F)cn1` [Example 653, 5-{2-Fluoro-4-[2-(tetrahydro-2H-pyran-4-yloxy)pyridin-3-yl]phenyl}pyrazin-2-amine] displayed a Ki in assay [1] of 17.3 nM. Further, the concentration for half-maximal inhibition (IC50) in assay [2] was 527 nM.
